Results: BindingDB's records for doi:10.1021/jm040037k (Abbott Laboratories, 2004)
Square brackets hold non-standard residues; d marks the D form. Peptide text beside a SMILES is read from it. * marks the point of attachment. Tle = CC(C)(C)[C@H](N)C(=O)O; NMeA = CN[C@@H](C)C(=O)O; βNA = c1ccc2cc(N*)ccc2c1

Biological target: T1, E3 ubiquitin-protein ligase XIAP [241-356] (Homo sapiens, UniProt P98170)
T1 construct: 241-356
Experiment: Ligand Binding Assay
Conditions: pH 7.4; 22 °C
Procedure: A fluorescence polarization anisotropy (FPA) competition assay was used to determine the affinities of compounds to BIR3 protein. Fluorescence polarization measurements were carried out on an Analyst 96-well plate reader. 6-Carboxyfluorescein (FAM) labeled peptides with the sequences AVPIAQK (FAM)-NH2 was used as a probe. Dissociation constants were determined from titration curves with in-house written software.

T1 sequence (P98170 241-356): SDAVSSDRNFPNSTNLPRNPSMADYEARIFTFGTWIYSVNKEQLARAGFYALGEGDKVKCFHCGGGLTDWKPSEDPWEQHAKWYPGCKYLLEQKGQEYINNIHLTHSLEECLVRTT

SMILES | Kd
CN[C@@H](C)C(=O)N[C@H](C(=O)N1CCC[C@H]1C(=O)N[C@H]1CCc2ccccc21)C(C)(C)C [H-N-Me-Ala-Tle-Pro-(S)-indan-1-yl Amide] | > 1000 nM
C[C@@H](C(=O)N[C@H](C(=O)N1CCC[C@H]1C(=O)N[C@@H]1CCCc2ccccc21)C(C)(C)C)N(C)C [(2S)-1-[(2S)-2-[(2S)-2-(dimethylamino)propanamido]-3,3-dimethylbutanoyl]-N-[(1R)-1,2,3,4-tetrahydronaphthalen-1-yl]pyrrolidine-2-carboxamide] | > 1000 nM
CN[C@@H](C)C(=O)N[C@H](C(=O)N1CCC[C@H]1C(=O)Nc1ccc2ccccc2c1)C(C)(C)C [(2S)-1-[(2S)-3,3-dimethyl-2-[(2S)-2-(methylamino)propanamido]butanoyl]-N-(naphthalen-2-yl)pyrrolidine-2-carboxamide] (H-[NMeA]-[Tle]-Pro-βNA) | > 1000 nM
CN[C@@H](C)C(=O)N[C@H](C(=O)N1CCC[C@H]1C(=O)NC1c2ccccc2-c2ccccc21)C(C)(C)C [H-N-Me-Ala-Tle-Pro-fluoren-9-yl Amide] | 47 nM
C[C@@H](C(=O)N[C@H](C(=O)N1CCC[C@H]1C(=O)N[C@@H]1CCCc2ccccc21)C1CCCCC1)N(C)C [(2S)-1-[(2S)-2-cyclohexyl-2-[(2S)-2-(dimethylamino)propanamido]acetyl]-N-[(1R)-1,2,3,4-tetrahydronaphthalen-1-yl]pyrrolidine-2-carboxamide] | > 1000 nM
CN[C@@H](C)C(=O)N[C@H](C(=O)N1CCC[C@H]1C(=O)Nc1cccc2ccccc12)C(C)(C)C [H-N-Me-Ala-Tle-Pro-naphth-1-yl Amide] | > 500 nM
C[C@@H](C(=O)N[C@H](C(=O)N1C[C@@H](Oc2ccccc2)C[C@H]1C(=O)N[C@@H]1CCCc2ccccc21)C(C)(C)C)N(C)C [(2S,4S)-1-[(2S)-2-[(2S)-2-(dimethylamino)propanamido]-3,3-dimethylbutanoyl]-4-phenoxy-N-[(1R)-1,2,3,4-tetrahydronaphthalen-1-yl]pyrrolidine-2-carboxamide] | > 1000 nM
CN[C@@H](C)C(=O)N[C@H](C(=O)N1CCC[C@H]1C(=O)N[C@@H]1CCc2ccccc21)C(C)(C)C [(2S)-N-[(1R)-2,3-dihydro-1H-inden-1-yl]-1-[(2S)-3,3-dimethyl-2-[(2S)-2-(methylamino)propanamido]butanoyl]pyrrolidine-2-carboxamide] | 29 nM
